Experimental data from ChEMBL document CHEMBL1201862, “PubChem BioAssay data set” (2004).
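In this assay, cells in 96-well plates receive the compound at five concentrations for 48 hours. Endpoints are linearly interpolated between the surrounding concentrations. GI50 is the concentration that inhibits growth by half.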 Activity calls are given as the source filed them. Rule as the data show it: active = GI50 up to about 1.1 µM and inactive = higher.

What was measured:
Experiment in all cases: inhibition of tumour cell growth, NCI panel, 48 h
[1] = test system: NCI-H226
[2] = test system: NCI-H522
[3] = test system: RXF 393
[4] = test system: CAKI-1
[5] = test system: RXF 631
[6] = test system: SF-295
[7] = test system: SN12C
[8] = test system: HOP-62
[9] = test system: A498
[10] = test system: K562
[11] = test system: SF-539
[12] = test system: XF498
[13] = test system: SR
[14] = test system: DLD-1
[15] = test system: M19-MEL
[16] = test system: HCC 2998
[17] = test system: SK-MEL-2
[18] = test system: 786-0
[19] = test system: HCT-15
[20] = test system: SK-MEL-5
[21] = test system: SNB-78
[22] = test system: MOLT-4
[23] = test system: UACC-62
[24] = test system: SK-OV-3
[25] = test system: SW-620
[26] = test system: RPMI-8226
[27] = test system: Malme-3M
[28] = test system: SF-268
[29] = test system: HOP-92
[30] = test system: OVCAR-3
[31] = test system: HOP-18
[32] = test system: OVCAR-8
[33] = test system: OVCAR-4
[34] = test system: HCT-116
[35] = test system: M14
[36] = test system: CCRF-CEM
[37] = test system: LOX IMVI
[38] = test system: HT-29
[39] = test system: DMS-273
[40] = test system: KM12
[41] = test system: U-251
[42] = test system: NCI-H460
[43] = test system: A549
[44] = test system: EKVX
[45] = test system: DMS-114
[46] = test system: SK-MEL-28
[47] = test system: HL-60
[48] = test system: NCI-H23
[49] = test system: IGROV-1
[50] = test system: KM-20L2
[51] = test system: UACC-257
[52] = test system: UO-31
[53] = test system: OVCAR-5
[54] = test system: TK-10
[55] = test system: ACHN
[56] = test system: LXFL 529
[57] = test system: SNB-75
[58] = test system: SNB-19
[59] = test system: COLO 205

In the case of `c1ccc2c(c1)[nH]c1c2nc2ccccn21`, the GI50 [1] is reported as > 100 µM (inactive), the GI50 [2] is reported as > 100 µM (inactive) and the GI50 [3] is reported as > 100 µM (inactive). The GI50 [4] was 67.9 µM (inactive), the GI50 [5] was > 100 µM (inactive) and the GI50 [6] was > 100 µM (inactive). The GI50 [7] was > 100 µM (inactive), the GI50 [8] was > 100 µM (inactive) and the GI50 [9] was 85.5 µM (inactive). The GI50 [10] was 74.3 µM (inactive), the GI50 [11] was > 100 µM (inactive) and the GI50 [12] was > 100 µM (inactive). The GI50 [13] was > 100 µM (inactive), the GI50 [14] was 66.1 µM (inactive) and the GI50 [15] was > 100 µM (inactive). The GI50 [16] was > 100 µM (inactive), the GI50 [17] was > 100 µM (inactive) and the GI50 [18] was 81.3 µM (inactive).
For `OC1C2CCC1C1C3C=CC(C3)C21` (centres undefined), the GI50 [1] was 58.5 µM (inactive), the GI50 [19] was 77.4 µM and the GI50 [2] was 50.9 µM (inactive). The GI50 [3] was 47 µM (inactive), the GI50 [4] was 64.9 µM (inactive) and the GI50 [20] was 87.3 µM (inactive). The GI50 [21] was > 100 µM (inactive), the GI50 [22] was 64.9 µM (inactive) and the GI50 [23] was > 100 µM (inactive). For the same compound, the GI50 [24] was > 100 µM (inactive), the GI50 [25] was > 100 µM (inactive) and the GI50 [26] was 42.9 µM (inactive). The GI50 [6] was 61.5 µM (inactive), the GI50 [27] was > 100 µM (inactive) and the GI50 [28] was > 100 µM (inactive). The GI50 [29] was 34.4 µM (inactive), the GI50 [30] was > 100 µM (inactive) and the GI50 [31] was > 100 µM (inactive). For the same compound, the GI50 [32] was > 100 µM (inactive), the GI50 [33] was > 100 µM (inactive) and the GI50 [34] was 79.4 µM (inactive). For the same compound, the GI50 [35] was > 100 µM (inactive), the GI50 [36] was 39.6 µM (inactive) and the GI50 [37] was 86.5 µM (inactive). For the same compound, the GI50 [38] was > 100 µM (inactive), the GI50 [39] was 94.4 µM (inactive) and the GI50 [8] was > 100 µM (inactive). The GI50 [40] was 99.3 µM (inactive), the GI50 [41] was > 100 µM (inactive) and the GI50 [42] was > 100 µM (inactive). For the same compound, the GI50 [43] was 57 µM (inactive), the GI50 [10] was 70.6 µM (inactive) and the GI50 [44] was > 100 µM (inactive). The GI50 [45] was 59.6 µM (inactive), the GI50 [46] was > 100 µM (inactive) and the GI50 [47] was 38.1 µM (inactive). The GI50 [48] was 52.1 µM (inactive), the GI50 [49] was > 100 µM (inactive) and the GI50 [50] was 77.3 µM (inactive). For the same compound, the GI50 [51] was > 100 µM (inactive), the GI50 [12] was > 100 µM (inactive) and the GI50 [52] was > 100 µM (inactive). The GI50 [53] was 63.4 µM (inactive), the GI50 [13] was 54.7 µM (inactive) and the GI50 [54] was > 100 µM (inactive). For the same compound, the GI50 [14] was > 100 µM (inactive), the GI50 [15] was > 100 µM (inactive) and the GI50 [17] was 32.8 µM (inactive). For the same compound, the GI50 [18] was > 100 µM (inactive), the GI50 [55] was 95.9 µM (inactive) and the GI50 [56] was 96.4 µM (inactive). For the same compound, the GI50 [57] was 46.6 µM (inactive), the GI50 [58] was > 100 µM (inactive) and the GI50 [59] was > 100 µM (inactive).
With `O=C1CCCCC2N(C(c3ccccc3)c3ccccc3)CC[C@@]12c1ccccc1.O=C1CCCC[C@H]2N(C(c3ccccc3)c3ccccc3)CC[C@@]12c1ccccc1` (some centres undefined) the GI50 [1] was 6.38 µM (inactive), the GI50 [19] was 7.93 µM and the GI50 [2] was 3.68 µM (inactive). The GI50 [3] was 4.32 µM (inactive), the GI50 [4] was 4.83 µM (inactive) and the GI50 [5] was 3.88 µM (inactive). The GI50 [20] was 4.57 µM (inactive), the GI50 [21] was > 10 µM (inactive) and the GI50 [22] was 3.06 µM (inactive). For the same compound, the GI50 [23] was > 10 µM (inactive), the GI50 [24] was > 10 µM (inactive) and the GI50 [26] was 2.77 µM (inactive). The GI50 [6] was > 10 µM (inactive), the GI50 [28] was > 10 µM (inactive) and the GI50 [29] was 2.56 µM (inactive). For the same compound, the GI50 [30] was > 10 µM (inactive), the GI50 [32] was > 10 µM (inactive) and the GI50 [33] was 4.21 µM (inactive). For the same compound, the GI50 [34] was 2.99 µM (inactive), the GI50 [35] was > 10 µM (inactive) and the GI50 [36] was 6.12 µM (inactive). The GI50 [37] was 6.3 µM (inactive), the GI50 [7] was > 10 µM (inactive) and the GI50 [38] was 4 µM (inactive). For the same compound, the GI50 [39] was > 10 µM (inactive), the GI50 [40] was > 10 µM (inactive) and the GI50 [41] was > 10 µM (inactive). The GI50 [42] was 9.55 µM (inactive), the GI50 [43] was > 10 µM (inactive) and the GI50 [9] was > 10 µM (inactive). For the same compound, the GI50 [10] was 4.27 µM (inactive), the GI50 [11] was > 10 µM (inactive) and the GI50 [44] was 7.73 µM (inactive). The GI50 [45] was 5.19 µM (inactive), the GI50 [46] was > 10 µM (inactive) and the GI50 [47] was 2.87 µM (inactive). For the same compound, the GI50 [48] was 4.8 µM (inactive), the GI50 [49] was > 10 µM (inactive) and the GI50 [50] was > 10 µM (inactive). For the same compound, the GI50 [51] was 6.14 µM (inactive), the GI50 [52] was 8.05 µM (inactive) and the GI50 [53] was > 10 µM (inactive). The GI50 [54] was > 10 µM (inactive), the GI50 [15] was > 10 µM (inactive) and the GI50 [55] was 8.87 µM (inactive). The GI50 [57] was > 10 µM (inactive) and the GI50 [58] was > 10 µM (inactive).
